Experiment: Release of benzoic acid from pie-shaped-compartment dosage form, UV 226 nm
Format: physicochemical
Conditions: PEG8000 flat tablet with pie shaped compartment; pH 8 Na2HPO4 solution, 37° C., 100 rpm; FIG. 18C
Protocol: The release profile of the benzoic acid from the dosage form was measured as the following method. Na2HPO4 solution of pH 8 was prepared as dissolvent of benzoic acid. Benzoic acid solution of 120 μg/mL was serially diluted to 30 μg/mL, 15 μg/m, 7.5 μg/m, 3.75 μg/mL, and 1.875 μg/mL solutions, whose absorbance at 226 nm was measured using a UV spectrophotometer. The numbers obtained were treated with linear regression to generate a standard curve of benzoic acid concentration with the formula y=0.0599x+0.0347. To measure the released amount of benzoic acid, the dosage form was dissolved in degassed pH 8 Na2HPO4 solution at 37° C.±0.5° C. and […] at 100 rpm. 5 mL solution was collected from the solution at each time point to measure the concentration of benzoic acid with 5 mL dissolvent added back to the solution. The collected solution was filtered through 0.45 um membrane before transferred to an UV spectrophotometer for measuring the absorbance at 226 nm. The percentage of benzoic acid released was calculated using the following formula: […]
Wherein Cn means concentrate measured, Vtmeans total solution volume,
Vs means sample volume, Qbenzoic acid means amout of benzoic acid in the dosage form

## O=C(O)c1ccccc1 [benzoic acid, Benzoic acid]
  release profile of the benzoic acid: matches a model profile
